Laboratory results published in ChEMBL document CHEMBL4359907, “Scalable and cost-effective tosylation-mediated synthesis of antifungal and fungal diagnostic 6″-Modified amphiphilic kanamycins” (Eur J Med Chem, 2019).
Activity calls are given as the source filed them. The rule behind the calls is not given here.

What was measured:
[1] = tested on: Rhodotorula mucilaginosa; experiment: Antifungal activity against Rhodotorula pilimanae ATCC 26423 incubated for 24 to 36 hrs by two fold dilution method; assay type: functional
[2] = tested on: Candida albicans; experiment: Induction of membrane permeabilization in azole-resistant Candida albicans 64124 at 1/4 times MIC incubated for 5 mins by phase contrast microscopic method; assay type: functional, organism-based
[3] = tested on: Candida albicans; experiment: Antifungal activity against azole-resistant Candida albicans 64124 incubated for 24 to 36 hrs by two fold dilution method; assay type: functional
[4] = tested on: Fusarium graminearum; experiment: Antifungal activity against Fusarium graminearum B4-5A incubated for 24 to 36 hrs by two fold dilution method; assay type: functional
[5] = tested on: Escherichia coli; experiment: Antibacterial activity against Escherichia coli ATCC 25922 incubated for 18 hrs by two fold dilution method; assay type: functional; conditions: ATCC 25922, 18 h
[6] = tested on: Staphylococcus aureus; experiment: Induction of membrane permeabilization in Staphylococcus aureus at 1/2 times MIC incubated for 60 mins by phase contrast microscopic method; assay type: functional, organism-based
[7] = tested on: Escherichia coli; experiment: Induction of membrane permeabilization in Escherichia coli ATCC 25922 at MIC incubated for 60 mins by phase contrast microscopic method; assay type: functional, organism-based
[8] = tested on: Staphylococcus aureus; experiment: Antibacterial activity against methicillin-resistant Staphylococcus aureus ATCC 43300 incubated for 18 hrs by two fold dilution method; assay type: functional; conditions: ATCC 43300, 18 h
[9] = tested on: Staphylococcus aureus; experiment: Induction of membrane permeabilization in Staphylococcus aureus at 1/2 times MIC incubated for 5 mins by phase contrast microscopic method; assay type: functional, organism-based
[10] = tested on: Escherichia coli; experiment: Induction of membrane permeabilization in Escherichia coli ATCC 25922 at MIC incubated for 5 mins by phase contrast microscopic method; assay type: functional, organism-based
[11] = tested on: Staphylococcus aureus; experiment: Antibacterial activity against Staphylococcus aureus ATCC 25923 incubated for 18 hrs by two fold dilution method; assay type: functional; conditions: ATCC 25923, 18 h
[12] = tested on: Staphylococcus aureus; experiment: Antibacterial activity against methicillin-resistant Staphylococcus aureus ATCC 33591 incubated for 18 hrs by two fold dilution method; assay type: functional; conditions: ATCC 33591, 18 h
[13] = tested on: Candida albicans; experiment: Induction of membrane permeabilization in azole-susceptible Candida albicans MYA2876 at 1/4 times MIC incubated for 5 mins by phase contrast microscopic method; assay type: functional, organism-based
[14] = tested on: HeLa; experiment: Cytotoxicity against human HeLa cells assessed as reduction in cell viability incubated for 24 hrs by MTT assay; assay type: cell-based
[15] = tested on: Cryptococcus neoformans; experiment: Antifungal activity against Cryptococcus neoformans H99 incubated for 24 to 36 hrs by two fold dilution method; assay type: functional
[16] = tested on: Cryptococcus neoformans; experiment: Antifungal activity against Cryptococcus neoformans VR-54 incubated for 24 to 36 hrs by two fold dilution method; assay type: functional
[17] = tested on: Candida albicans; experiment: Antifungal activity against azole-susceptible Candida albicans MYA2876 incubated for 24 to 36 hrs by two fold dilution method; assay type: functional

How did the MIC [1] turn out when `Cl.Cl.Cl.Cl.NC[C@H]1O[C@H](O[C@H]2[C@H](O)[C@@H](O[C@H]3O[C@H](CNC(=O)c4ccccc4-c4c5ccc(=O)cc-5oc5cc(O)ccc45)[C@@H](O)[C@H](N)[C@H]3O)[C@H](N)C[C@@H]2N)[C@H](O)[C@@H](O)[C@@H]1O` was run?
Its MIC is 32 mg/L.

And the Activity [2]?
The Activity was “Active”.

And the MIC [3]?
The MIC was 128 mg/L.

And the MIC [4]?
Its MIC is 32 mg/L.

And the MIC [5]?
Its MIC is 32 mg/L.

What about the Activity [6] of the same molecule?
Its Activity is “Active”.

And the Activity [7]?
The Activity was “Active”.

And the MIC [8]?
Its MIC is greater than 256 mg/L.

And the Activity [9]?
The Activity was “inactive”.

What about the Activity [10] of the same molecule?
The Activity was “inactive”.

What about the MIC [11] of the same molecule?
Its MIC is 64 mg/L.

What about the MIC [12] of the same molecule?
Its MIC is greater than 256 mg/L.

What about the Activity [13] of the same molecule?
Its Activity is “Active”.

What about the IC50 [14] of the same molecule?
The IC50 was greater than 100 mg/L.

What about the MIC [15] of the same molecule?
Its MIC is 64 mg/L.

What about the MIC [16] of the same molecule?
Its MIC is 64 mg/L.

And the MIC [17]?
The MIC was 256 mg/L.
